From patent US20240287048A1, “SUBSTITUTED ACYL SULFONAMIDES FOR TREATING CANCER” (The Broad Institute, Inc., priority 2020, published 2024)

What was measured:
[1] = target: T1, KAT6A (Homo sapiens, UniProt Q92794); experiment: Kat6a activity assay (TR-FRET, acetylation of biotinylated histone H4 peptide); type: biochemical; details: recombinant human His-tagged Kat6a (amino acids 194-810), 60 mins at 22° C., read-out: KAT6A-DPF/HAT domain IC50 [mol/l] (arithmetic mean)
T1 construct: Recombinant human His-tagged Kat6a protein (amino acids 194-810); His; made in house; host or cells: Baculovirus-infected Sf9 insect cells
T1 sequence (Q92794 194-810): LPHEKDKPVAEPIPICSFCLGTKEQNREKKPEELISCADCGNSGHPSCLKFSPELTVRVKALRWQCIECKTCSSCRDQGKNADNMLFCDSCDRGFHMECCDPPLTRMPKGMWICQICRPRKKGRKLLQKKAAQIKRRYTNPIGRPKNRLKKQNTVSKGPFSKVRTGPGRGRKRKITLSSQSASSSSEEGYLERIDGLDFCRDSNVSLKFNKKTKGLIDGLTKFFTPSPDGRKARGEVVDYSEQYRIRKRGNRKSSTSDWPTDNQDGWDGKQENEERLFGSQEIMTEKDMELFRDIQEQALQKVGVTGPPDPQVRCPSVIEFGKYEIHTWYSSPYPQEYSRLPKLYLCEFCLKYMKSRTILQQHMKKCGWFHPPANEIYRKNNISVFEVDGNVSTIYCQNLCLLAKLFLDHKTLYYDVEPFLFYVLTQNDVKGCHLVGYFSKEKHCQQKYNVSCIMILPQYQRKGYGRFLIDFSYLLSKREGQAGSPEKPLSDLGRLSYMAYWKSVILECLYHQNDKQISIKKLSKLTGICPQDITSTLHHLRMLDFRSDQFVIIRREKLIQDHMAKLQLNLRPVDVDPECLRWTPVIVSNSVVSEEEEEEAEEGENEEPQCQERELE
From the text: Kat6a inhibitory activities of the compounds described in the present invention were quantified using a Fluorescence Resonance Energy Transfer (TR-FRET) assay which measures acetylation of a synthetic, biotinylated Histone-H4-derived peptide by the enzyme.
Recombinant human His-tagged Kat6a protein (amino acids 194-810), was purified in-house from Baculovirus-infected insect cells (Sf9). Histone H4 peptide (amino acids 1-24, […]-VLRD-K(Btn)-amide), which was used as substrate, was synthesized by Biosyntan GmbH, Berlin, Germany. Acetyl Coenzyme A was purchased from Sigma-Aldrich (#A-2056).
Kat6a was incubated for 60 mins at 22° C. in the presence of different concentrations of test substances (0 μM, and within the range 0.01-20 μM) in assay buffer [25 mM Tris/HCl pH 8, 1 mM EGTA, 2.5 mM Glutathion, 0.02% Chicken Albumin, 0.05% Pluronic F127, 25 mM NaCl, 220 nM H4 peptide and 600 nM Acetyl Coenzyme A].
The reaction was stopped by addition of Detection Solution (25 mM HEPES pH 7.5, 0.1% BSA, 22 nM SAXL665 (Cisbio #610SAXLE), 100 μM Anacardic Acid (Enzo #ALX-270-381), 1 nM Anti-Histone H4 (ACETYL K8) Antibody (ABCAM #AB15823) and 0.5 nM Anti-Rabbit IgG Eu (Perkin Elmer #AD0083).
The fluorescence emission at 620 nm and 665 nm after excitation at 330-350 nm was measured in a TR-FRET measuring instrument, for instance a Rubystar or a Pherastar (both from BMG Lab Technologies, Offenburg, Germany) or a Viewlux (Perkin-Elmer). The ratio of the emission at 665 nm and at […] was used as indicator of the amount of acetylated peptide.
The resulting data (ratio) were normalized, taking 0% inhibition as the mean value of control measurements where all reagents were included. In this case 50 nl DMSO were used instead of compounds. […] IC50 values were determined by regression analysis based on a 4 parameter equation (minimum, maximum, ICM, Hill; Y=Max+(Min−Max)/(1+(X/ICso) Hill) using the Screener Software (Genedata).

[2] = system: ESR1 transcription in MVLN cells; experiment: Repression of ESR1 transcription, MVLN luciferase reporter assay; type: cell-based; details: Homo sapiens, luciferase signal after 24 h, read-out: MVLN reporter assay, IC50[M] (arithmetic mean)
From the text: KAT6A controls transcription of the ESR1 gene in breast cancer cells. Compound treatment that interferes with this mechanism was quantified using MVLN cells. These cells constitutively express the ER and are stably transfected with the luciferase (LUC) reporter gene and the corresponding hormone responsive element derived from the 5′-flanking region of the Xenopus Vitellogenin A2 gene (Pons et al., 1990, Demirpense et al., 1993, Joyeux et al., 1993). The repressive effect on ERα transcription activity of a test chemical is directly related to the luciferase measured in the lysate of treated MVLN cells.
Each sample was prepared as duplicate and rim wells were excluded. For luciferase signal determination 100 μl of a 1:1 mixture of Steadylite plus (Perkin Elmer; 6016759) and assay medium was added after 24 h for 15 minutes and measured in Victor X3 (Perkin Elmer). To exclude any effects caused by cell loss during the treatment, cell density was determined using Alamar Blue (Invitrogen; DAL1100). Prior to the luciferase measurement 10 μl Alamar Blue were added to each well and the plates were incubated for 2 h in the incubator. Then fluorescence was measured with Victor X3 (Perkin Elmer) at 530 nm/590 nm.

Row | IC50 [1] | IC50 [2] | Compound
1 | 55.6 nM | 4.23e-07 M | CCOc1ccc(F)cc1S(=O)(=O)NC(=O)c1cc2c(F)cc(C3CC3)cc2o1 [Example 32, 6-Cyclopropyl-N-(2-ethoxy-5-fluoro-phenyl)sulfonyl-4-fluoro-benzofuran-2-carboxamide]
2 | 6.32 nM | 1.74e-06 M | CCOc1ccc(Oc2ccccc2)cc1S(=O)(=O)NC(=O)c1cc2c(F)cc(C3CC3)cc2o1 [Example 33, 6-Cyclopropyl-N-(2-ethoxy-5-phenoxy-phenyl)sulfonyl-4-fluoro-benzofuran-2-carboxamide]
3 | 4.16 nM | 2.4e-07 M | CC(C)(C)c1ccc(OCC(F)(F)F)c(S(=O)(=O)NC(=O)c2cc3c(F)cc(C4CC4)cc3o2)c1 [Example 62, N-((5-(tert-butyl)-2-(2,2,2-trifluoroethoxy)phenyl)sulfonyl)-6-cyclopropyl-4-fluorobenzofuran-2-carboxamide]
4 | 20.8 nM | 1.42e-06 M | CCOc1ccc(OC(F)(F)F)cc1S(=O)(=O)NC(=O)c1cc2c(F)cc(C3CC3)cc2o1 [Example 34, 6-Cyclopropyl-N-[2-ethoxy-5-(trifluoromethoxy)phenyl]sulfonyl-4-fluoro-benzofuran-2-carboxamide]
5 | 37.3 nM | 2.84e-07 M | CCOc1cc(F)ccc1S(=O)(=O)NC(=O)c1cc2c(F)cc(C3CC3)cc2o1 [Example 30, 6-Cyclopropyl-N-(2-ethoxy-4-fluoro-phenyl)sulfonyl-4-fluoro-benzofuran-2-carboxamide]
6 | 2.67 nM | 8.24e-08 M | CC(C)(C)c1ccc(OCc2ccccc2)c(S(=O)(=O)NC(=O)c2cc3c(F)cc(C4CC4)cc3o2)c1 [Example 60, N-[(2-(Benzyloxy)-5-(tert-butyl)phenyl)sulfonyl]-6-cyclopropyl-4-fluorobenzofuran-2-carboxamide]
7 | 4.79 nM | 1.23e-07 M | CCOc1ccc(C(C)C)cc1S(=O)(=O)NC(=O)c1cc2c(F)cc(C3CC3)cc2o1 [Example 72, 6-Cyclopropyl-N-(2-ethoxy-5-isopropyl-phenyl)sulfonyl-4-fluoro-benzofuran-2-carboxamide]
8 | 148 nM | 1.77e-05 M | O=C(NS(=O)(=O)c1ccccc1)c1cc2c(OC(F)F)cc(C3CC3)cc2o1 [Example 46, N-(benzenesulfonyl)-6-cyclopropyl-4-(difluoromethoxy)benzofuran-2-carboxamide]
9 | 3.01 nM | 1.41e-07 M | CC(C)c1ccc(OCC2CC2)c(S(=O)(=O)NC(=O)c2cc3c(F)cc(C4CC4)cc3o2)c1 [Example 36, 6-Cyclopropyl-N-[2-(cyclopropylmethoxy)-5-isopropyl-phenyl]sulfonyl-4-fluoro-benzofuran-2-carboxamide]
10 | 5.99 nM | 2.19e-07 M | CC(C)c1ccc(OCc2ccccc2)c(S(=O)(=O)NC(=O)c2cc3c(F)cc(C4CC4)cc3o2)c1 [Example 35, N-(2-Benzyloxy-5-isopropyl-phenyl)sulfonyl-6-cyclopropyl-4-fluoro-benzofuran-2-carboxamide]
11 | 24.8 nM | 6.63e-07 M | CCCOc1ccccc1S(=O)(=O)NC(=O)c1cc2c(F)cc(C3CC3)cc2o1 [Example 40, 6-Cyclopropyl-4-fluoro-N-(2-propoxyphenyl)sulfonyl-benzofuran-2-carboxamide]
12 | 2.92 nM | 1.11e-07 M | CC(C)(C)c1ccc(OCC2CC2)c(S(=O)(=O)NC(=O)c2cc3c(F)cc(C4CC4)cc3o2)c1 [Example 61, N-((5-(tert-butyl)-2-(cyclopropylmethoxy)phenyl)sulfonyl)-6-cyclopropyl-4-fluorobenzofuran-2-carboxamide]
13 | 28.6 nM | 6.97e-06 M | CCOc1ccccc1S(=O)(=O)NC(=O)c1cc2c(OC(F)F)cc(C3CC3)cc2o1 [Example 49, 6-Cyclopropyl-4-(difluoromethoxy)-N-(2-ethoxyphenyl)sulfonyl-benzofuran-2-carboxamide]
14 | 26.7 nM | 5.54e-06 M | O=C(NS(=O)(=O)c1ccccc1-c1ccccc1)c1cc2c(OC(F)F)cc(C3CC3)cc2o1 [Example 48, 6-Cyclopropyl-4-(difluoromethoxy)-N-(2-phenylphenyl)sulfonyl-benzofuran-2-carboxamide]
15 | 4.5 nM | 8.29e-08 M | CC(C)c1ccc(OCC2CC2(F)F)c(S(=O)(=O)NC(=O)c2cc3c(F)cc(C4CC4)cc3o2)c1 (stereo not shown) [Example 67, 6-Cyclopropyl-N-{(2-[(2,2-difluorocyclopropyl)methoxy)-5-isopropylphenyl]sulfonyl}-4-fluorobenzofuran-2-carboxamide]
16 | 106 nM | 1.7e-06 M | CCOc1c(F)cccc1S(=O)(=O)NC(=O)c1cc2c(F)cc(C3CC3)cc2o1 [Example 28, 6-Cyclopropyl-N-(2-ethoxy-3-fluoro-phenyl)sulfonyl-4-fluoro-benzofuran-2-carboxamide]
17 | 8.99 nM | 2.31e-07 M | CCOc1ccc(C(F)(F)F)cc1S(=O)(=O)NC(=O)c1cc2c(F)cc(C3CC3)cc2o1 [Example 31, 6-Cyclopropyl-N-[2-ethoxy-5-(trifluoromethyl)phenyl]sulfonyl-4-fluoro-benzofuran-2-carboxamide]
18 | 3.58 nM | 1.04e-07 M | CC(C)(C)c1ccc(OC2CC2)c(S(=O)(=O)NC(=O)c2cc3c(F)cc(C4CC4)cc3o2)c1 [Example 59, N-((5-(tert-butyl)-2-cyclopropoxyphenyl)sulfonyl)-6-cyclopropyl-4-fluorobenzofuran-2-carboxamide]
19 | 4.33 nM | 1.76e-07 M | CC(C)Oc1ccc(C(C)(C)C)cc1S(=O)(=O)NC(=O)c1cc2c(F)cc(C3CC3)cc2o1 [Example 64, N-((5-(tert-Butyl)-2-isopropoxyphenyl)sulfonyl)-6-cyclopropyl-4-fluorobenzofuran-2-carboxamide]
20 | 4.99 nM | 2.98e-07 M | CC(C)c1ccc(OCC(F)(F)F)c(S(=O)(=O)NC(=O)c2cc3c(F)cc(C4CC4)cc3o2)c1 [Example 41, 6-Cyclopropyl-4-fluoro-N-[5-isopropyl-2-(2,2,2-trifluoroethoxy)phenyl]sulfonyl-benzofuran-2-carboxamide]
21 | 39.5 nM | > 2e-05 M | CCOc1ccccc1S(=O)(=O)NC(=O)c1cc2c(-n3ccnc3)cc(C3CC3)cc2o1 [Example 58, 6-Cyclopropyl-N-(2-ethoxyphenyl)sulfonyl-4-imidazol-1-yl-benzofuran-2-carboxamide]

Row | Compound | IC50 [1] | IC50 [2]
22 | CC(C)c1ccc(OC2CCC2)c(S(=O)(=O)NC(=O)c2cc3c(F)cc(C4CC4)cc3o2)c1 [Example 65, N-[(2-Cyclobutoxy-5-isopropylphenyl)sulfonyl]-6-cyclopropyl-4-fluorobenzofuran-2-carboxamide] | 2.09 nM | 1.49e-07 M
23 | CC(C)(C)c1ccc(OC2CCC2)c(S(=O)(=O)NC(=O)c2cc3c(F)cc(C4CC4)cc3o2)c1 [Example 63, N-((5-(tert-Butyl)-2-cyclobutoxyphenyl)sulfonyl)-6-cyclopropyl-4-fluorobenzofuran-2-carboxamide] | 2.46 nM | 2.24e-07 M
